# Results as given in ChEMBL document CHEMBL3351605, “Biased multicomponent reactions to develop novel bromodomain inhibitors” (J Med Chem, 2014).
# Tested on: not listed separately
# Assay: Cytotoxicity against BRD4-NUT-expressing human NMC-797 cells assessed as reduction in cell viability after 3 days by ATPlite assay
# Format: functional, cell-based
# Details: NMC-797, 72 h
row,SMILES,EC50 [µM]
1,Cc1noc(C)c1-c1ccc(-c2nc3cnccn3c2NC(C)(C)C)cc1,0.724
2,CCCCN1C(=O)c2ccccc2NC(=O)C1c1ccc(-c2c(C)noc2C)c(OC)c1 (centres undefined),9.91
3,CCOC(=O)[C@]1(C)NC(c2ccc(-c3c(C)noc3C)cc2)C2C(=O)N(CC)C(=O)C21 (some centres undefined),9.42
4,COc1ccc(-c2cc(-c3ccc(-c4c(C)noc4C)cc3)nc(-c3ccccc3)n2)cc1,> 100
5,Cc1noc(C)c1-c1ccc(-c2nc3ccc(Cl)cn3c2NCc2ccccc2)cc1,18.4
6,Cc1noc(C)c1-c1ccc(-c2nc3cnccn3c2NC(C)(C)C)nc1,8.29
7,Cc1noc(C)c1-c1ccc(-c2nc3cnccn3c2NCc2ccccc2)cc1,49.1
8,Cc1noc(C)c1-c1ccc(-c2nc3ccccn3c2NC2CCCCC2)cc1,5.07
9,COc1ccc(Nc2c(-c3ccc(-c4c(C)noc4C)cc3)nc3ccccn23)cc1,7.36
10,COc1ccc(Nc2c(-c3ccc(-c4c(C)noc4C)cc3)nc3cc(OC)ncn23)cc1,11.8
11,Cc1noc(C)c1-c1ccc(-c2nc3ccc(Cl)cn3c2NC(C)(C)C)cc1,2.19
12,Cc1noc(C)c1-c1ccc(-c2nc3ccccn3c2NC(C)(C)C)cc1,2.04
13,Cc1noc(C)c1-c1ccc(-c2nc3cnccn3c2NC(C)(C)C)cn1,> 100
14,COc1ccc(Nc2c(-c3ccc(-c4c(C)noc4C)cc3)nc3ccc(Cl)cn23)cc1,20.7
15,Cc1noc(C)c1-c1ccc(-c2nc3cnccn3c2NC(C)C)cc1,0.494
16,Cc1noc(C)c1-c1cccc(C2Nc3ccccc3NC3=C2C(=O)OC3)c1 (centres undefined),> 100
17,Cc1noc(C)c1-c1ccc(-c2nc3cnccn3c2NC(C)(C)C)cc1F,12.8

# Biological target: T1, Bromodomain-containing protein 4 (Homo sapiens, UniProt O60885)
# Assay: Inhibition of BRD4 (unknown origin) by biotinylated-JQ1 based AlphaScreen BRD binding assay
# Details: not given
row,SMILES,IC50 [µM]
1,Cc1noc(C)c1-c1ccc(-c2nc3cnccn3c2NC(C)(C)C)cc1,0.637
2,COc1ccc(-c2cc(-c3ccc(-c4c(C)noc4C)cc3)nc(-c3ccccc3)n2)cc1,69.9
3,COc1ccc(Nc2c(-c3ccc(-c4c(C)noc4C)cc3)nn3ccncc23)cc1,7.86
4,Cc1ccc2nc(-c3ccc(-c4c(C)noc4C)cc3)c(NCc3ccccc3)n2c1,> 100
5,CCOC(=O)C(C)N(Cc1ccc(-c2c(C)noc2C)cc1)C(=O)c1ccc(OC)cc1 (centres undefined),16.3
6,Cc1noc(C)c1-c1ccc(C=O)cc1,1.7

# Biological target: T1, Bromodomain-containing protein 4
# Assay: Binding affinity to BRD4 (unknown origin) by isothermal titration […]
# Details: not given
row,SMILES,Kd [µM]
1,Cc1noc(C)c1-c1ccc(-c2nc3cnccn3c2NC(C)(C)C)cc1,0.55
